Consider 4 compounds from paper PMC10997755, “Discovery of a small-molecule inhibitor that traps Polθ on DNA and synergizes with PARP inhibitors” (Nature Communications, 2024).

Where “and” joins values, the source holds several entries; their conditions need not be identical. Equal entries are not always repeated. Entries after “also recorded” stand apart in the source; their conditions may differ.

Test [1] has as its target T1, Polθ-pol (Homo sapiens, UniProt O75417).
T1 construct: purified recombinant human Polθ-pol (comprising amino acid residues 1792–2590); made in house
T1 sequence (O75417 1792-2590): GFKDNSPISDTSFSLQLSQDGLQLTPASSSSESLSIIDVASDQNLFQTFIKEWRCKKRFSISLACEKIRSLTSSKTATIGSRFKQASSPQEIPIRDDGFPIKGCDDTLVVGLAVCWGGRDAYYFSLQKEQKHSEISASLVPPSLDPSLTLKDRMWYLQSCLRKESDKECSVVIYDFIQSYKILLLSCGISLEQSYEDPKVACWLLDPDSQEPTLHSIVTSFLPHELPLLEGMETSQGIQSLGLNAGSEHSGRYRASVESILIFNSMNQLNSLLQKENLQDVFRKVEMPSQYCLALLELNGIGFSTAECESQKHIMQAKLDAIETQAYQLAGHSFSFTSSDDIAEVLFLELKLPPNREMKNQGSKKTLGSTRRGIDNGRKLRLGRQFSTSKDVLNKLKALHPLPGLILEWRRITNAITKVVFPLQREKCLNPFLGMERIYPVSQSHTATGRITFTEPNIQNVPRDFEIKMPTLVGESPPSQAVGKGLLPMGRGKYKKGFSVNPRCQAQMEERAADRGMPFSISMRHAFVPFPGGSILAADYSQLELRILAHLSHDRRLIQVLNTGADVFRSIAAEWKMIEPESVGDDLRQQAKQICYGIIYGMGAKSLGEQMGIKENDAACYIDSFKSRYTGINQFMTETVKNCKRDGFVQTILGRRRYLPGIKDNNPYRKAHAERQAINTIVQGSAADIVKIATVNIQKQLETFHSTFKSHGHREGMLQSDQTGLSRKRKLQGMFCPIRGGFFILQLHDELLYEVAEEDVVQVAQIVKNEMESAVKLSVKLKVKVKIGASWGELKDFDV
Nature of the test: Cy5 fluorescence Polθ-pol DNA synthesis (strand displacement) IC50 assay. In kind it is biochemical. The note with it: 5 nM PolQ, 18 min. Here is the method: The following Cy5 fluorescence assay was used to measure the ability of compounds to inhibit Polθ-pol in vitro. The fluorescent based assay was performed as follows: 60 nM of the pre-annealed primer-template containing a 5’ Cy5 fluorophore conjugated template strand (RP486-Cy5), a downstream complementary oligo conjugated with a 3’ Iowa BlackReg Dark quencher (RP343BHQRQ) and a primer strand (RP469D) was mixed with 50 uM 2'-deoxyribonucleoside triphosphates (dNTPs), 0.1 mg/mL Bovine serum albumin (BSA), 0.01% NP-40, 10% glycerol, 1 mM dithiothreitol (DTT), 10 mM MgCl2, 25 mM TrisHCl pH 7.8 in the presence of 2.5% DMSO with or without various concentrations (7-point dilution series) of Polθ-pol small-molecule inhibitors at 37 °C in a volume of 40 μL. The reactions were initiated by the addition of 5 nM of purified recombinant human Polθ-pol (comprising amino acid residues 1792–2590). The reactions were terminated by the addition of 20 mM EDTA after 18 min, and the Cy5 fluorescence intensity was measured using a CLARIOstar (BMG Labtech) plate reader. Reactions were performed in triplicate and the % inhibition at each concentration of the respective compound of Formula I was based on the mean.

For test [2], the system named is MDA-MB-231 cells. Nature of the test: Clonogenic assay. In kind it is cell-based. Conditions: Fig. 2f, vehicle (Rtx-161 zero). The procedure: (§1) Cells were plated on six or twelve or twenty-four well plates. In six well plate, 1000 cells/ well of BRCA2 -/-, BRCA1 -/-, PALB2 mut and 500 cells/ well of wildtype pair was plated; In twelve well plate, 600 cells/ well of BRCA2 -/-, BRCA1 -/-, PALB2 mut and 400 cells/ well of wildtype pair was plated; In twenty-four well plate, 500 cells/ well of BRCA2 -/-, BRCA1 -/-, PALB2 mut and 300 cells/ well of wildtype pair was plated. For MEFs, 300 cells per well in six-well plate were seeded. The medium was replaced every 2 days until the colonies were ready for staining in 10–12 days. For staining: Medium was removed from plates, and cells were rinsed with PBS. Fixation was carried out with—Water: Ethanol: Acetic acid (5:4:1) for 30 min followed by staining of colonies with 0.5% crystal violet in Water: Ethanol (3:2) for 2 h at room temperature. The plates were rinsed with water and left for drying overnight at room temperature. Colonies were then counted and IC50 was calculated using results from 3 or more independent experiments. Response curves are shown as mean colony formation +/- S.E.M.
(§2) Data are expressed as mean ± SEM from at least 3 independent experiments with triplicates for each condition unless stated otherwise. When conducting comparison between two groups, two-tailed unpaired t-test was used. Significance was assumed at p < 0.05. Asterisks in the figures indicate significance, ^∗p < 0.05, ^∗∗p < 0.01, ^∗∗∗p < 0.001. Combenefit® software version 2.021 was used to perform synergy analyses for drug combinations between RTx-161 and PARPi. GraphPad Prism 9 software was used to calculate IC50.

For test [3], the system named is DLD1 BRCA2 -/- cells. Nature of the test: Clonogenic assay. In kind it is cell-based. The note with it: for average / percent suvival / replicate counts: vehicle, DLD1-BRCA2 null cells. Here is the method: as §1, §2
The nature of test [4]: Clonogenic assay, OLA with or without RTX-161 (Fig. 2 a; cell line not given). Conditions: vehicle, single experiments. In kind it is cell-based.
In test [5] the test system is DLD1 Parental cells. As to the kind of experiment: Clonogenic assay. In kind it is cell-based. The note with it: Olaparib 1 μM, BRCA2-WT. The procedure: as §1

Turning to ART-558, the “raw signal, Trial 1-3” value is 191.03 and 186.60 and 188.77 in test [1] (0.0016 μM compound, 60 nM 469D/343-BHQRQ/486-Cy5 DNA); 171.92 and 173.21 and 159.20 in test [1] (0.0049 μM compound, 60 nM DNA); 136.44 and 129.18 and 136.16 in test [1] (0.0148 μM compound, 60 nM DNA); 107.36 and 98.15 and 102.46 in test [1] (0.0444 μM compound, 60 nM DNA); 85.13 and 86.41 and 81.22 in test [1] (0.1333 μM compound, 60 nM DNA); 77.91 and 78.16 and 79.89 in test [1] (0.4000 μM compound, 60 nM DNA). Moreover, the “% Activity, Average” value in test [1] (0.0016 μM compound, 60 nM DNA) is 85.90%; in test [1] (0.0049 μM compound, 60 nM DNA), 70.18%; in test [1] (0.0148 μM compound, 60 nM DNA) it was 44.31%; in test [1] (0.0444 μM compound, 60 nM DNA), 20.55%; in test [1] (0.1333 μM compound, 60 nM DNA), 6.69%; in test [1] (0.4000 μM compound, 60 nM DNA) it was 2.48%. For the same compound, the “% Activity, Trial 1-3” value is 80.91% and 85.80% and 91.00% in test [1] (0.0016 μM compound, 60 nM DNA); 67.33% and 75.35% and 67.85% in test [1] (0.0049 μM compound, 60 nM DNA); 42.11% and 41.00% and 49.82% in test [1] (0.0148 μM compound, 60 nM DNA); 21.44% and 16.79% and 23.44% in test [1] (0.0444 μM compound, 60 nM DNA); 5.64% and 7.63% and 6.80% in test [1] (0.1333 μM compound, 60 nM DNA); 0.51% and 1.19% and 5.76% in test [1] (0.4000 μM compound, 60 nM DNA). For the same compound, the “% Inhibition, Average” value in test [1] (0.0016 μM compound, 60 nM DNA) came out at 14.10%; in test [1] (0.0049 μM compound, 60 nM DNA), 29.82%; in test [1] (0.0148 μM compound, 60 nM DNA), 55.69%; in test [1] (0.0444 μM compound, 60 nM DNA), 79.45%; in test [1] (0.1333 μM compound, 60 nM DNA), 93.31%; in test [1] (0.4000 μM compound, 60 nM DNA) it was 97.52%. Also, the “raw signal, Average” value in test [1] (0.0016 μM compound, 60 nM DNA) is 188.80; in test [1] (0.0049 μM compound, 60 nM DNA), 168.11; in test [1] (0.0148 μM compound, 60 nM DNA), 133.93; in test [1] (0.0444 μM compound, 60 nM DNA) it was 102.66; in test [1] (0.1333 μM compound, 60 nM DNA) it was 84.25; in test [1] (0.4000 μM compound, 60 nM DNA) it was 78.65. Moreover, the “% Inhibition, Trial 1-3” value was 32.67% and 24.65% and 32.15% in test [1] (0.0049 μM compound, 60 nM DNA); 57.89% and 59.00% and 50.18% in test [1] (0.0148 μM compound, 60 nM DNA); 78.56% and 83.21% and 76.56% in test [1] (0.0444 μM compound, 60 nM DNA); 94.36% and 92.37% and 93.20% in test [1] (0.1333 μM compound, 60 nM DNA); 99.49% and 98.81% and 94.24% in test [1] (0.4000 μM compound, 60 nM DNA).

For the compound `Cn1ncnc1[C@H]1c2n[nH]c(=O)c3cc(F)cc(c23)N[C@@H]1c1ccc(F)cc1` [Talazoparib], the percent suvival was 83.7456% in test [2] (Talazoparib 12.5 nano M, experiment block 1 (c0-c7)); 90.5063% in test [2] (Talazoparib 12.5 nano M, experiment block 2 (c8-c15)); 79.3478% in test [2] (Talazoparib 12.5 nano M, experiment block 3 (c16-c23)); 72.4382% in test [2] (Talazoparib 25 nano M, experiment block 1 (c0-c7)); 53.1646% in test [2] (Talazoparib 25 nano M, experiment block 2 (c8-c15)); 57.0652% in test [2] (Talazoparib 25 nano M, experiment block 3 (c16-c23)). Moreover, the percent suvival in test [2] (Talazoparib 50 nano M, experiment block 1 (c0-c7)) was 24.735%; in test [2] (Talazoparib 50 nano M, experiment block 2 (c8-c15)) it was 34.1772%; in test [2] (Talazoparib 50 nano M, experiment block 3 (c16-c23)), 30.9783%.

`O=C(c1cc(Cc2n[nH]c(=O)c3ccccc23)ccc1F)N1CCN(C(=O)C2CC2)CC1` [OLA]: the average in test [3] (OLA 3.125 nano M) worked out at 100; in test [3] (OLA 6.25 nano M) it was 86; in test [3] (OLA 12.50 nano M), 68.3333; in test [3] (OLA 25.00 nano M), 45.6667; in test [3] (OLA 50.00 nano M) it was 38; in test [3] (OLA 100.00 nano M) it was 20.3333. Further, the percent suvival stood at 96.463% in test [3] (OLA 3.125 nano M); 82.9582% in test [3] (OLA 6.25 nano M); 65.9164% in test [3] (OLA 12.50 nano M); 44.0514% in test [3] (OLA 25.00 nano M); 36.6559% in test [3] (OLA 50.00 nano M); 19.6141% in test [3] (OLA 100.00 nano M). For the same compound, the percent suvival in test [4] (OLA 0.125 nano M) is 98.3333%; in test [4] (OLA 0.25 nano M), 90.8333% and 74.269% and 96.7105%; in test [4] (OLA 0.5 nano M) it was 67.8363% and 93.4211% and 71.6667%; in test [4] (OLA 1 nano M) it was 43.3333% and 47.9532% and 73.6842%; in test [4] (OLA 2 nano M), 35% and 27.4854% and 32.2368%; in test [4] (OLA 4 nano M) it was 17.5% and 9.357% and 9.868%. The replicate counts in test [3] (OLA 3.125 nano M) is 99 and 93 and 108; in test [3] (OLA 6.25 nano M) it was 84 and 95 and 79; in test [3] (OLA 12.50 nano M) it was 64 and 72 and 69; in test [3] (OLA 25.00 nano M), 49 and 40 and 48; in test [3] (OLA 50.00 nano M), 37 and 42 and 35; in test [3] (OLA 100.00 nano M), 24 and 18 and 19.

For `O=C(c1cc(Cc2n[nH]c(=O)c3ccccc23)ccc1F)N1CCN(C(=O)C2CC2)CC1` [Olaparib, reference compound], in test [3] (Olaparib 1 μM, BRCA2-NULL), the Average (colonies) was determined as 0 and the Percent survival is on record as 0. Moreover, the “selective killing / synthetic lethality in BRCA2-null DLD1 cells” value in test [3] (colony survival, versus BRCA2-WT) is “selective killing; also recorded: induction of synthetic lethality”. Moreover, in test [5], the Average (colonies) was 102.667 and the Percent survival is given as 99.6764.
